PubChem BioAssay (NCI)
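Grown in 96-well plates, cells were treated for 48 hours with each compound at five concentrations. Insufficient inhibition: endpoint recorded as highest concentration tested. TGI denotes the concentration required for complete inhibition of growth.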

Tests used:
Experiment in all cases: growth of human tumour cells (NCI), 48 h
786-0 renal = test system: 786-0 renal
A498 renal = test system: A498 renal
A549 NSCLC = test system: A549 NSCLC
ACHN renal = test system: ACHN renal
BT-549 breast = test system: BT-549 breast
CAKI-1 renal = test system: CAKI-1 renal
CCRF-CEM leukemia = test system: CCRF-CEM leukemia
COLO 205 colon = test system: COLO 205 colon
DLD-1 colon = test system: DLD-1 colon
DMS 273 small cell lung = test system: DMS 273 small cell lung
EKVX NSCLC = test system: EKVX NSCLC
HCC-2998 colon = test system: HCC-2998 colon
HCT-116 colon = test system: HCT-116 colon
HL-60(TB) leukemia = test system: HL-60(TB) leukemia
HOP-18 NSCLC = test system: HOP-18 NSCLC
HOP-62 NSCLC = test system: HOP-62 NSCLC
HOP-92 NSCLC = test system: HOP-92 NSCLC
HS 578T breast = test system: HS 578T breast
HT29 colon = test system: HT29 colon
IGROV1 ovarian = test system: IGROV1 ovarian
K-562 leukemia = test system: K-562 leukemia
KM12 colon = test system: KM12 colon
KM20L2 colon = test system: KM20L2 colon
LOX IMVI melanoma = test system: LOX IMVI melanoma
LXFL 529 NSCLC = test system: LXFL 529 NSCLC
M14 melanoma = test system: M14 melanoma
M19-MEL melanoma = test system: M19-MEL melanoma
MALME-3M melanoma = test system: MALME-3M melanoma
MDA-MB-231 breast = test system: MDA-MB-231 breast
MDA-MB-435 = test system: MDA-MB-435
MOLT-4 leukemia = test system: MOLT-4 leukemia
NCI-H23 lung = test system: NCI-H23 lung
NCI-H460 lung = test system: NCI-H460 lung
NCI-H522 lung = test system: NCI-H522 lung
OVCAR-3 ovarian = test system: OVCAR-3 ovarian
OVCAR-4 ovarian = test system: OVCAR-4 ovarian
OVCAR-5 ovarian = test system: OVCAR-5 ovarian
OVCAR-8 ovarian = test system: OVCAR-8 ovarian
PC-3 prostate = test system: PC-3 prostate
RPMI-8226 leukemia = test system: RPMI-8226 leukemia
RXF 393 renal = test system: RXF 393 renal
SF-268 CNS = test system: SF-268 CNS
SF-295 CNS = test system: SF-295 CNS
SF-539 CNS = test system: SF-539 CNS
SK-MEL-2 melanoma = test system: SK-MEL-2 melanoma
SK-MEL-28 melanoma = test system: SK-MEL-28 melanoma
SK-MEL-5 melanoma = test system: SK-MEL-5 melanoma
SK-OV-3 ovarian = test system: SK-OV-3 ovarian
SN12C renal = test system: SN12C renal
SNB-19 CNS = test system: SNB-19 CNS
SNB-75 CNS = test system: SNB-75 CNS
SNB-78 CNS = test system: SNB-78 CNS
SR leukemia = test system: SR leukemia
SW-620 colon = test system: SW-620 colon
T-47D breast = test system: T-47D breast
TK-10 renal = test system: TK-10 renal
U251 CNS = test system: U251 CNS
UACC-257 melanoma = test system: UACC-257 melanoma
UACC-62 melanoma = test system: UACC-62 melanoma
UO-31 renal = test system: UO-31 renal

Q: Which TGI (786-0 renal) does the source give for `COc1cc2c(c(OC)c1OC)-c1ccc(SC)c(=O)cc1C(NC(=O)c1ccccc1)CC2` (stereo not given) here?
A: Its TGI is 38.3 µM.

Q: What about the TGI (A498 renal) of the same compound?
A: The TGI was 0.435 µM.

Q: What about the TGI (A549 NSCLC) of the same compound?
A: Its TGI is 65.9 µM.

Q: And the TGI (ACHN renal)?
A: The TGI was greater than 63.1 µM.

Q: What about the TGI (BT-549 breast) of the same compound?
A: The TGI was greater than 31.6 µM.

Q: What about the TGI (CAKI-1 renal) of the same compound?
A: Its TGI is 48.5 µM.

Q: And the TGI (CCRF-CEM leukemia)?
A: Its TGI is greater than 68.1 µM.

Q: What about the TGI (COLO 205 colon) of the same compound?
A: The TGI was less than 0.01 µM.

Q: And the TGI (DLD-1 colon)?
A: The TGI was greater than 100 µM.

Q: And the TGI (DMS 273 small cell lung)?
A: Its TGI is greater than 40.6 µM.

Q: And the TGI (EKVX NSCLC)?
A: The TGI was greater than 100 µM.

Q: What about the TGI (HCC-2998 colon) of the same compound?
A: The TGI was 0.144 µM.

Q: And the TGI (HCT-116 colon)?
A: The TGI was 0.188 µM.

Q: And the TGI (HL-60(TB) leukemia)?
A: Its TGI is less than 0.0127 µM.

Q: What about the TGI (HOP-18 NSCLC) of the same compound?
A: The TGI was greater than 100 µM.

Q: And the TGI (HOP-62 NSCLC)?
A: Its TGI is 21.1 µM.

Q: And the TGI (HOP-92 NSCLC)?
A: The TGI was 3.79 µM.

Q: And the TGI (HS 578T breast)?
A: Its TGI is 5.34 µM.

Q: What about the TGI (HT29 colon) of the same compound?
A: Its TGI is 1.12 µM.

Q: And the TGI (IGROV1 ovarian)?
A: Its TGI is 49.6 µM.

Q: And the TGI (K-562 leukemia)?
A: The TGI was greater than 68.1 µM.

Q: And the TGI (KM12 colon)?
A: Its TGI is 0.0357 µM.

Q: And the TGI (KM20L2 colon)?
A: The TGI was less than 0.01 µM.

Q: What about the TGI (LOX IMVI melanoma) of the same compound?
A: The TGI was 62.2 µM.

Q: And the TGI (LXFL 529 NSCLC)?
A: The TGI was greater than 76.5 µM.

Q: And the TGI (M14 melanoma)?
A: Its TGI is 30.3 µM.

Q: What about the TGI (M19-MEL melanoma) of the same compound?
A: Its TGI is greater than 100 µM.

Q: And the TGI (MALME-3M melanoma)?
A: The TGI was 32.7 µM.

Q: And the TGI (MDA-MB-231 breast)?
A: The TGI was 1.77 µM.

Q: What about the TGI (MDA-MB-435) of the same compound?
A: Its TGI is less than 0.01 µM.

Q: What about the TGI (MOLT-4 leukemia) of the same compound?
A: The TGI was 43.4 µM.

Q: What about the TGI (NCI-H23 lung) of the same compound?
A: The TGI was 0.903 µM.

Q: What about the TGI (NCI-H460 lung) of the same compound?
A: Its TGI is 1.62 µM.

Q: And the TGI (NCI-H522 lung)?
A: Its TGI is less than 0.0316 µM.

Q: What about the TGI (OVCAR-3 ovarian) of the same compound?
A: The TGI was less than 0.01 µM.

Q: And the TGI (OVCAR-4 ovarian)?
A: Its TGI is 22.2 µM.

Q: And the TGI (OVCAR-5 ovarian)?
A: Its TGI is 58.7 µM.

Q: What about the TGI (OVCAR-8 ovarian) of the same compound?
A: The TGI was 24.6 µM.

Q: And the TGI (PC-3 prostate)?
A: Its TGI is greater than 31.6 µM.

Q: What about the TGI (RPMI-8226 leukemia) of the same compound?
A: The TGI was 52.5 µM.

Q: And the TGI (RXF 393 renal)?
A: The TGI was 7.88 µM.

Q: What about the TGI (SF-268 CNS) of the same compound?
A: Its TGI is 53.3 µM.

Q: What about the TGI (SF-295 CNS) of the same compound?
A: The TGI was less than 0.0133 µM.

Q: What about the TGI (SF-539 CNS) of the same compound?
A: The TGI was 0.0922 µM.

Q: And the TGI (SK-MEL-2 melanoma)?
A: Its TGI is less than 0.215 µM.

Q: What about the TGI (SK-MEL-28 melanoma) of the same compound?
A: Its TGI is greater than 63.1 µM.

Q: What about the TGI (SK-MEL-5 melanoma) of the same compound?
A: The TGI was less than 0.01 µM.

Q: And the TGI (SK-OV-3 ovarian)?
A: The TGI was 1.94 µM.

Q: And the TGI (SN12C renal)?
A: The TGI was 52.6 µM.

Q: And the TGI (SNB-19 CNS)?
A: Its TGI is 29.1 µM.

Q: What about the TGI (SNB-75 CNS) of the same compound?
A: The TGI was 4.01 µM.

Q: And the TGI (SNB-78 CNS)?
A: Its TGI is greater than 90.9 µM.

Q: What about the TGI (SR leukemia) of the same compound?
A: Its TGI is 27 µM.

Q: And the TGI (SW-620 colon)?
A: Its TGI is 34.7 µM.

Q: And the TGI (T-47D breast)?
A: Its TGI is greater than 100 µM.

Q: And the TGI (TK-10 renal)?
A: The TGI was 64.4 µM.

Q: And the TGI (U251 CNS)?
A: The TGI was 4.18 µM.

Q: And the TGI (UACC-257 melanoma)?
A: Its TGI is 18.4 µM.

Q: What about the TGI (UACC-62 melanoma) of the same compound?
A: Its TGI is 36.7 µM.

Q: What about the TGI (UO-31 renal) of the same compound?
A: The TGI was greater than 68.1 µM.
